This note sets out measurements from patent US20210198269A1, “INHIBITORS OF GLUCOSE TRANSPORTERS (GLUTs)” (LEAD DISCOVERY CENTER GMBH, priority 2018, published 2021).

What all share (assay type): cell-based
One assay has as its target T1, GLUT1 (Homo sapiens, UniProt P11166).
T1 construct: host or cells: DLD-1 (DLD1) cells
T1 sequence (P11166 1-492): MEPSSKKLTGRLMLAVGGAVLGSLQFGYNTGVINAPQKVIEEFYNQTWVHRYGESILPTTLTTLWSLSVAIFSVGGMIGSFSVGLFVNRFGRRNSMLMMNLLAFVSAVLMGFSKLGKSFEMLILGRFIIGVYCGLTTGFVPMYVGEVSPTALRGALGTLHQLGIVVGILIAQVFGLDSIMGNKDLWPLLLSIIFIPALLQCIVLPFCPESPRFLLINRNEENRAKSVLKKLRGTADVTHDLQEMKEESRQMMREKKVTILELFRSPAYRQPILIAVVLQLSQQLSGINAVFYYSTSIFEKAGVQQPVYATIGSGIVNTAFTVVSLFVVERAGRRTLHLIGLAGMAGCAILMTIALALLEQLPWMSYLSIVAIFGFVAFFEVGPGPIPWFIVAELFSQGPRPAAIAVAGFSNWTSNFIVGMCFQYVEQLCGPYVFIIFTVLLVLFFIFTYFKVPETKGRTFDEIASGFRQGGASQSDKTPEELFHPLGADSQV
The assay is described as follows: GLUT1 transporter activity assay (2-DG uptake) in DLD1 cells. The note with it: DLD1 cell line; read-out: GLUT1 inhibitory activity (IC50). The procedure, abridged: (§1)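 DLD1 cells (GLUT1) or DLD-1-GLUT1−/− cells (GLUT3) in glucose-free RPMI with 1% FCS, treated with compound plus 1 mM 2-DG for 30 min. Lysate 2-DG measured by G6PDH/diaphorase-coupled resazurin-to-resorufin fluorescence (ex/em 535/590 nm), blank-subtracted and normalized to DMSO control.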

For a further assay, the target named is T2, GLUT3 (Homo sapiens, UniProt P11169).
T2 construct: host or cells: DLD-1-GLUT1(-/-) cells
T2 sequence (P11169 1-496): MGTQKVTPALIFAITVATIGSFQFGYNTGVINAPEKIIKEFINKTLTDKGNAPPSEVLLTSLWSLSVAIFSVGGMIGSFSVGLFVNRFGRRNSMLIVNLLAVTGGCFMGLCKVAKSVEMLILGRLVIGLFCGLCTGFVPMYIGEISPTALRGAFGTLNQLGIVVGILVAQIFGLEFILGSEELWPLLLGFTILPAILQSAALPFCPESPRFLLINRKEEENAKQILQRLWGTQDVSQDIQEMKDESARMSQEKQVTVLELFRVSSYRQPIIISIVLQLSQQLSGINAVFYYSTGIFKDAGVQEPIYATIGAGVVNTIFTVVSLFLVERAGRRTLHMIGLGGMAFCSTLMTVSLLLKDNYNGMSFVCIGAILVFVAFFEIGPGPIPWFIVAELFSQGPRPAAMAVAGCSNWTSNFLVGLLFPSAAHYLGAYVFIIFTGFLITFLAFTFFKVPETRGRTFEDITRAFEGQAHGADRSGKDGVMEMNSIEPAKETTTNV
Kind of assay: GLUT3 transporter activity assay (2-DG uptake) in DLD-1-GLUT1-/- cells. The settings on record: DLD-1-GLUT1-/- cell line; read-out: GLUT3 inhibitory activity (IC50). The gist of the method: as §1

A further assay deals with T3, GLUT4 (Homo sapiens, UniProt P14672).
T3 sequence (P14672 1-509): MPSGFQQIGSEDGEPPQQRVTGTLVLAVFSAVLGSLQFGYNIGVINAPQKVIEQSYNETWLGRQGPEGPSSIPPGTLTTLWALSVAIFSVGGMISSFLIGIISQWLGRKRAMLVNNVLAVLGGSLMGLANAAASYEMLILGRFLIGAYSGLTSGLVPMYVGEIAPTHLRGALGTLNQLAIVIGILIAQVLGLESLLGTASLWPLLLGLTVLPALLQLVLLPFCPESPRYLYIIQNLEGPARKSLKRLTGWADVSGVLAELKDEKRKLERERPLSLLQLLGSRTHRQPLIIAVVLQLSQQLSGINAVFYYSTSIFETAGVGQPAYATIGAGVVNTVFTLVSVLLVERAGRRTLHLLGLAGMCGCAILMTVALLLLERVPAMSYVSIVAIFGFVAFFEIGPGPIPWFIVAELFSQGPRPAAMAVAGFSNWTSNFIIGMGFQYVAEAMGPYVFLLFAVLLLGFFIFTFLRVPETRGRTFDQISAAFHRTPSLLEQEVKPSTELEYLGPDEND
Kind of assay: GLUT4 transporter activity assay (2-DG uptake) in CHO-hGLUT4 cells. The settings on record: CHO-hGLUT4 cell line; read-out: GLUT4 inhibitory activity (IC50). The procedure, abridged: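 Stable CHOK1 clone overexpressing human GLUT4 (7,000 cells/well), in glucose-free RPMI with 1% FCS, incubated with compound and 1 mM 2-DG for 30 min. After acid/CHAPS lysis at 65 °C, 2-DG quantified by G6PDH/diaphorase-coupled resazurin-to-resorufin fluorescence (ex/em 535/590 nm). Blank-subtracted, normalised to DMSO.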

In another assay the test system is HCT116 cells. Kind of assay: 2-Deoxy-Glucose (2-DG) uptake assay in HCT116 cells. The note with it: Homo sapiens, HCT-116, 0.5 h, 1 mM 2-DG, 30 min, read-out: IC50 determined for the inhibition of 2-DG uptake in HCT116 cells. How it is done: The 2-DG uptake assay was carried out as described by Yamamoto N. et al. with slight modifications ([…]). Briefly, 40,000 HCT116 or CHO cells were seeded in black, clear bottom 96-well plates and allowed to attach overnight. Cells were incubated with compounds or DMSO and 1 mM 2-DG in glucose-free KRB buffer (20 mM HEPES, 5 mM KH2PO4, 1 mM MgSO4, 1 mM CaCl2), 136 mM NaCl, 0.1% BSA, pH 7.4) for 30 min. In the case of GLUT-4 transfected cells, Insulin (100 μg/mL) was added to the buffer. Cells were then washed and lysed in 0.06 M HCl and 1% CHAPS for 15 min at 65° C. while shaking. The amount of 2-DG in the lysate was determined by means of enzyme-coupled assay. For this 6.4 U/mL glucose-6-phosphate dehydrogenase, 0.2 U/mL diaphorase, 0.1 mM NADP^+ and 0.025 mg/mL resazurin were added to the lysates. Resorufin fluorescence was determined as a measure of 2-DG uptake at ex/em 535/590 nm with a Tecan Infinite M200 plate reader (Tecan). Blank values were subtracted from all readings and values were normalized to the DMSO control.

What is called IC50 is the point on the concentration scale where inhibition reaches its midpoint. For the compound `Cc1ccc(CCNC(=O)c2cccc(N3C(=O)NC4CC3(C)Oc3c(OCc5ccc([N+](=O)[O-])cc5)cccc34)c2)cc1` (stereo not shown) [Compound A03, 3-(2-Methyl-10-((4-nitrobenzyl)oxy)-4-oxo-5,6-dihydro-2H-2,6-methanobenzo[g][1,3,5]oxadiazocin-3(4H)-yl)-N-(4-methylphenethyl)benzamide], the IC50 at GLUT1 is 300 to 1000 nM; on GLUT3, 300 to 1000 nM; on GLUT4, 4000 to 10000 nM; with HCT116 cells it was ≤ 5000 nM.

For the compound `Cc1ccc(CCNC(=O)c2cccc(N3C(=O)NC4CC3(C)Oc3c(OCc5cccc(Cl)c5)cccc34)c2)cc1` (stereo not shown) [Compound A04, 3-(10-((3-Chlorobenzyl)oxy)-2-methyl-4-oxo-5,6-dihydro-2H-2,6-methanobenzo[g][1,3,5]oxadiazocin-3(4H)-yl)-N-(4-methylphenethyl)benzamide], the IC50 on GLUT1 was 300 to 1000 nM; at GLUT3, 300 to 1000 nM; at GLUT4 it was > 25000 nM; in the assay on HCT116 cells, ≤ 5000 nM.

Regarding `Cc1ccc(CCNC(=O)c2cccc(N3C(=O)NC4CC3(C)Oc3c(OCc5ccc(C#N)cc5)cccc34)c2)cc1` (stereo not shown) [Compound A05, 3-(10-((4-Cyanobenzyl)oxy)-2-methyl-4-oxo-5,6-dihydro-2H-2,6-methanobenzo[g][1,3,5]oxadiazocin-3(4H)-yl)-N-(4-methylphenethyl)benzamide], the IC50 on GLUT1 was ≤ 300 nM; at GLUT3, ≤ 300 nM; at GLUT4, 4000 to 10000 nM; with HCT116 cells, ≤ 5000 nM.

For `Cc1ccc(CCNC(=O)c2cccc(N3C(=O)NC4CC3(C)Oc3c(OCc5ccco5)cccc34)c2)cc1` (stereo not shown) [Compound A07, 3-(10-(Furan-2-ylmethoxy)-2-methyl-4-oxo-5,6-dihydro-2H-2,6-methanobenzo[g][1,3,5]oxadiazocin-3(4H)-yl)-N-(4-methylphenethyl)benzamide], the IC50 is 300 to 1000 nM at GLUT1, 300 to 1000 nM at GLUT3, 4000 to 10000 nM at GLUT4 and ≤ 5000 nM in the assay with HCT116 cells.
